{
  "source": "patent US20100010002A1",
  "about": "“ANTICANCER USE OF CAFFEIC ACID AND ITS DERIVATIVES” (Piramal Life Sciences Limited, priority 2006, published 2010)",
  "key": {"Ba/F3 Bcr-Abl/Q252H": {"molecular_target": "T1, Ba/F3 Bcr-Abl/Q252H (Homo sapiens, UniProt P00519, Q252H, cells depend on it)", "T1 construct": "fused on or other part: P11274 (Breakpoint cluster region protein)", "test": "CCK-8 assay, Ba/F3 Bcr-Abl/Q252H", "assay_type": "cell-based", "details": "mouse, 72 h"}, "K-562-R": {"system": "K-562-R", "test": "3H-Thymidine uptake cell proliferation assay, K-562-R", "assay_type": "cell-based", "details": "Homo sapiens, 72 h incubation, K-562-R (GLEEVEC resistant), read-out: Antiproliferative activity IC50, K-562-R", "method": "(§1) ^3H-Thymidine uptake assay: ^3H-Thymidine-incorporation is directly proportional to the number of dividing cells in culture.\n(§2) Exponentially growing cultures were subjected to different concentrations of test compounds and standard as given below.\n(§3) Cells were seeded at a density of 3×10^3 to 5×10^3 per well (in 0.180 mL) in transparent 96 well tissue culture plate (NUNC, USA) and were allowed to incubate at 37° C. in 5% carbon dioxide incubator for 2-6 h. Test compounds were diluted in medium (RPMI1640 with 10% FBS) at various concentrations, and 0.02 mL of 10× stocks were added to each well in triplicate. Plates were incubated at 37° C. in 5% carbon dioxide incubator for 72 h, with an intermittent microscopic observation every 24 h.\n(§4) After 72 h incubation, the plate was centrifuged at 1000 rpm for 10 mins in a plate centrifuge. Supernatant was carefully aspirated and ^3H-Thymidine was added to all wells at a concentration of 0.5 μCi/well in 0.1 mL complete medium. Plates were further incubated at 37° C. in 5% carbon dioxide incubator for 6-14 h.\n(§5) The filter plate was dried completely at 60° C. for 1 h, or overnight (16 h) at room temperature (25° C.). […] The plate was sealed from the top, read on scintillation counter (TopCount, Packard), and percent inhibition and IC50 in comparison with control values was calculated."}, "Ba/F3 Bcr-Abl/F359V": {"molecular_target": "T2, Ba/F3 Bcr-Abl/F359V (Homo sapiens, UniProt P00519, F359V, cells depend on it)", "T2 construct": "fused on or other part: P11274 (Breakpoint cluster region protein)", "test": "CCK-8 assay, Ba/F3 Bcr-Abl/F359V", "assay_type": "cell-based", "details": "mouse, 72 h"}, "Ba/F3 Bcr-Abl/E255K": {"molecular_target": "T3, Ba/F3 Bcr-Abl/E255K (Homo sapiens, UniProt P00519, E255K, cells depend on it)", "T3 construct": "fused on or other part: P11274 (Breakpoint cluster region protein)", "test": "CCK-8 assay, Ba/F3 Bcr-Abl/E255K", "assay_type": "cell-based", "details": "mouse, 72 h"}, "Ba/F3 Bcr-Abl/F317L": {"molecular_target": "T4, Ba/F3 Bcr-Abl/F317L (Homo sapiens, UniProt P00519, F317L, cells depend on it)", "T4 construct": "fused on or other part: P11274 (Breakpoint cluster region protein)", "test": "CCK-8 assay, Ba/F3 Bcr-Abl/F317L", "assay_type": "cell-based", "details": "mouse, 72 h"}, "Ba/F3 Bcr-Abl/Y253H": {"molecular_target": "T5, Ba/F3 Bcr-Abl/Y253H (Homo sapiens, UniProt P00519, Y253H, cells depend on it)", "T5 construct": "fused on or other part: P11274 (Breakpoint cluster region protein)", "test": "CCK-8 assay, Ba/F3 Bcr-Abl/Y253H", "assay_type": "cell-based", "details": "mouse, 72 h"}, "Ba/F3 Bcr-Abl/WT": {"molecular_target": "T6, Ba/F3 Bcr-Abl/WT (Homo sapiens, UniProt P00519)", "T6 construct": "fused on or other part: P11274 (Breakpoint cluster region protein)", "test": "CCK-8 assay, Ba/F3 Bcr-Abl/WT", "assay_type": "cell-based", "details": "CCK-8, 72 h, imatinib mesylate sensitive; read-out: Inhibitory concentration (IC50), Ba/F3 Bcr-Abl/WT", "description": "(§6) The cell lines described in Table 3 were used to test the antiproliferative activity of test compounds.\n(§7) Cell Counting Kit-8 (CCK-8) allows very convenient assay by utilizing Dojindo's highly water-soluble tetrazolium salt. CCK-8, being nonradioactive, allows sensitive colorimetric assay for the determination of number of viable cells in cell proliferation and cytotoxicity assays. The amount of the formazan dye generated by dehydrogenases in cells is directly proportional to the number of living cells. Thus, the CCK-8 assay can also be substituted for the H^3-Thymidine incorporation assay.\n(§8) Plates were further incubated at 37° C., 5% CO2 incubator for 72 h. 10 μl of the CCK-8 solution was added to each well and plate was incubated for 1-4 h in the incubator. Measured the absorbance at 450 nm using a microplate reader.\n(§9) A. The percent inhibition and IC50 were calculated in comparison with control values."}, "K-562": {"system": "K-562", "test": "3H-Thymidine uptake cell proliferation assay, K-562", "assay_type": "cell-based", "details": "Homo sapiens, K562, 72 h incubation, read-out: Antiproliferative activity IC50, K-562", "method": "as §1, §2, §3, §4, §5"}, "Ba/F3 Bcr-Abl/M244V": {"molecular_target": "T7, Ba/F3 Bcr-Abl/M244V (Homo sapiens, UniProt P00519, M244V, cells depend on it)", "T7 construct": "fused on or other part: P11274 (Breakpoint cluster region protein)", "test": "CCK-8 assay, Ba/F3 Bcr-Abl/M244V", "assay_type": "cell-based", "details": "mouse, 72 h"}, "Ba/F3 Bcr-Abl/E255V": {"molecular_target": "T8, Ba/F3 Bcr-Abl/E255V (Homo sapiens, UniProt P00519, E255V, cells depend on it)", "T8 construct": "fused on or other part: P11274 (Breakpoint cluster region protein)", "test": "CCK-8 assay, Ba/F3 Bcr-Abl/E255V", "assay_type": "cell-based", "details": "mouse, 72 h"}, "Ba/F3 Bcr-Abl/T315I": {"molecular_target": "Ba/F3 Bcr-Abl/T315I (Homo sapiens, UniProt P00519, T315I, cells depend on it)", "description": "as §6, §7, §8, §9"}, "32Dcl^Bcr-Abl T315I": {"molecular_target": "T9, 32Dcl^Bcr-Abl T315I (Homo sapiens, UniProt P00519, T315I, cells depend on it)", "T9 construct": "Mouse fibroblast with T315I mutated Bcr-Abl; fused on or other part: P11274 (Breakpoint cluster region protein)", "test": "3H-Thymidine uptake cell proliferation assay, 32Dcl Bcr-Abl T315I", "assay_type": "cell-based, Mouse", "details": "72 h incubation, read-out: Antiproliferative activity IC50, 32Dcl^Bcr-Abl T315I", "method": "as §1, §2, §3, §4, §5"}, "Ba/F3 Bcr-Abl/M351T": {"molecular_target": "T10, Ba/F3 Bcr-Abl/M351T (Homo sapiens, UniProt P00519, M351T, cells depend on it)", "T10 construct": "fused on or other part: P11274 (Breakpoint cluster region protein)", "test": "CCK-8 assay, Ba/F3 Bcr-Abl/M351T", "assay_type": "cell-based", "details": "mouse, 72 h"}, "K562": {"system": "K562", "test": "CCK-8 cell proliferation and cytotoxicity assay, K562", "assay_type": "cell-based, Human", "details": "Homo sapiens, K562, 72 h; read-out: Inhibitory concentration (IC50), K562"}, "Ba/F3 Bcr-Abl/H396R": {"molecular_target": "T11, Ba/F3 Bcr-Abl/H396R (Homo sapiens, UniProt P00519, H396R, cells depend on it)", "T11 construct": "fused on or other part: P11274 (Breakpoint cluster region protein)", "test": "CCK-8 assay, Ba/F3 Bcr-Abl/H396R", "assay_type": "cell-based", "details": "mouse, 72 h"}, "Ba/F3 Bcr-Abl/H396P": {"molecular_target": "T12, Ba/F3 Bcr-Abl/H396P (Homo sapiens, UniProt P00519, H396P, cells depend on it)", "T12 construct": "fused on or other part: P11274 (Breakpoint cluster region protein)", "test": "CCK-8 assay, Ba/F3 Bcr-Abl/H396P", "assay_type": "cell-based", "details": "mouse, 72 h"}, "[1]": {"molecular_target": "T13, p210^bcr-abl tyrosine kinase (Homo sapiens, UniProt P00519)", "T13 construct": "immunoprecipitation of p210^bcr-abl tyrosine kinase from K-562 cell lysate; BCR (natural N-terminal fusion partner of the p210 BCR-ABL oncoprotein); endogenous in cells; host or cells: K-562 (human leukemic cell line); the other entry of the earlier key: BCR (P11274, Breakpoint cluster region protein)", "test": "Bcr-abl kinase assay: autophosphorylation after immunoprecipitation from treated K-562 cells", "assay_type": "cell-based", "details": "K-562 cells treated at IC50 and 3×IC50 for 24 h", "method": "To study inhibition of autophosphorylation of Bcr-abl. Study was carried out by immunoprecipitation of p210^bcr-abl tyrosine kinase from K-562 cell lysate, followed by kinase enzyme assay. The reaction mixture was subjected to SDS-PAGE followed by autoradiography.\nTo check for the inhibition of autophosphorylation of p210^bcr-abl tyrosine kinase by compounds of the present invention, K-562 cells which express wild type Bcr-abl were used. […] Cells were washed with PBS solution and lysed using lysis buffer (CelLytic M Cell Lysis reagent, Sigma Aldrich, USA) for 2-3 h in cold conditions. Protein was estimated by Bradford method (Bradford reagent, Sigma Aldrich, USA). For immunoprecipitation equal amount of protein is taken from all samples. A p210^bcr-abl protein was immunoprecipitated using polyclonal anti-c-abl antibody (Santa Cruz Biotechnologies, USA) followed by incubation at 4° C. overnight with Protein A-Sepharose. […]\nKinase reaction was performed using 0.5 μCi (γ^32P)-adenosine triphosphate per reaction and incubated for 30 minutes at room temperature (25° C.). […] Autophosphorylation reaction products are resolved on SDS-PAGE and detected by autoradiography."}, "Ba/F3 Bcr-Abl/Y253F": {"molecular_target": "T14, Ba/F3 Bcr-Abl/Y253F (Homo sapiens, UniProt P00519, Y253F, cells depend on it)", "T14 construct": "fused on or other part: P11274 (Breakpoint cluster region protein)", "test": "CCK-8 assay, Ba/F3 Bcr-Abl/Y253F", "assay_type": "cell-based", "details": "mouse, 72 h"}},
  "note": "Like-named read-outs stand apart in the source and are kept apart here.",
  "data": [
    {"smiles": "COC(=O)C=Cc1ccc(O)c(O)c1", "note": "[Compound 2, 3-(3,4-Dihydroxy-phenyl)-acrylic acid methyl ester]", "values": [
      {"measurement": "GI50", "setting": "Ba/F3 Bcr-Abl/Q252H", "value": 15.4, "unit": "µM"},
      {"measurement": "IC50", "setting": "K-562-R", "value": 23, "unit": "µM"},
      {"measurement": "GI50", "setting": "Ba/F3 Bcr-Abl/F359V", "value": 18.4, "unit": "µM"},
      {"measurement": "GI50", "setting": "Ba/F3 Bcr-Abl/E255K", "value": 15, "unit": "µM"},
      {"measurement": "GI50", "setting": "Ba/F3 Bcr-Abl/F317L", "value": 23.5, "unit": "µM"},
      {"measurement": "GI50", "setting": "Ba/F3 Bcr-Abl/Y253H", "value": 14.5, "unit": "µM"},
      {"measurement": "GI50", "setting": "Ba/F3 Bcr-Abl/WT", "value": "7.9 ± 2.1", "unit": "µM"},
      {"measurement": "IC50", "setting": "K-562", "value": "13.6 ± 2.3", "unit": "µM"},
      {"measurement": "GI50", "setting": "Ba/F3 Bcr-Abl/M244V", "value": 30.1, "unit": "µM"},
      {"measurement": "GI50", "setting": "Ba/F3 Bcr-Abl/E255V", "value": 18.9, "unit": "µM"},
      {"measurement": "GI50", "setting": "Ba/F3 Bcr-Abl/T315I; mouse, ba/f3 bcr-abl/t315i, 72 h", "value": 6.3, "unit": "µM"},
      {"measurement": "GI50", "setting": "Ba/F3 Bcr-Abl/T315I; read-out: Inhibitory concentration (IC50), Ba/F3 Bcr-Abl/T315I, CCK-8, 72 h, imatinib mesylate resistant, Table 4", "value": "3.8 ± 1.9", "unit": "µM"},
      {"measurement": "GI50", "setting": "32Dcl^Bcr-Abl T315I", "value": 35, "unit": "µM"},
      {"measurement": "GI50", "setting": "Ba/F3 Bcr-Abl/M351T", "value": 16.1, "unit": "µM"},
      {"measurement": "IC50", "setting": "K562", "value": "13.3 ± 2.1", "unit": "µM"},
      {"measurement": "GI50", "setting": "Ba/F3 Bcr-Abl/H396R", "value": 18.8, "unit": "µM"},
      {"measurement": "GI50", "setting": "Ba/F3 Bcr-Abl/H396P", "value": 26.2, "unit": "µM"},
      {"measurement": "Inhibition of autophosphorylation of Bcr-abl (band density, autoradiography)", "setting": "[1]", "value": "potent Bcr-abl tyrosine kinase inhibitor"},
      {"measurement": "GI50", "setting": "Ba/F3 Bcr-Abl/Y253F", "value": 17, "unit": "µM"}
    ]}
  ]
}
